Assays:
CDK4/cyclin D3 = biological target: T1, CDK4/cyclin D3 (Homo sapiens, UniProt P11802); assay: Human CDK4/cyclin D3 inhibitory activity (QS S Assist CDK4/Cyclin D3_FP Kit, IMAP fluorescent polarization); assay type: biochemical; conditions: read-out: CDK4 Activity symbol
T1 construct: purchased Carna Biosciences, Inc. QS S Assist CDK4/Cyclin D3_FP Kit
Procedure, shortened: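 Kinase reactions used kit CDK4/cyclin D3 at 12.5–25 ng/well with the kit ATP/substrate/metal mix in 20 mM HEPES (pH 7.4), 0.01% Tween20 and 2 mM DTT, run 45 min at room temperature. Phosphorylation was detected by IMAP fluorescence polarization (ex 485/em 535 nm) after 30 min binding in the dark. IC50 was fitted from percent inhibition against DMSO controls with and without enzyme.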

CDK2/cyclin A2 = biological target: T2, CDK2/cyclin A2 (Homo sapiens, UniProt P24941); assay: Human CDK2/cyclin A2 inhibitory activity (QS S Assist CDK2/Cyclin A2_FP Kit, IMAP fluorescent polarization); assay type: biochemical; conditions: read-out: CDK2 Activity symbol
T2 construct: purchased Carna Biosciences, Inc. QS S Assist CDK2/Cyclin A2_FP Kit
Procedure, shortened: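 Kit CDK2/cyclin A2 (2.5 ng/well) was reacted with kit ATP/substrate/metal in 20 mM HEPES pH 7.4, 0.01% Tween 20 and 2 mM DTT for 60 min at room temperature. IMAP binding reagent was added for 30 min, then fluorescence polarization was read at 485/535 nm. IC50 came from dose-response fitting of percent inhibition.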

[1] = test system: neuronal death caused by local ischemia; conditions: rat cerebral infarction model; cited from earlier work

T1 sequence (P11802 whole entry): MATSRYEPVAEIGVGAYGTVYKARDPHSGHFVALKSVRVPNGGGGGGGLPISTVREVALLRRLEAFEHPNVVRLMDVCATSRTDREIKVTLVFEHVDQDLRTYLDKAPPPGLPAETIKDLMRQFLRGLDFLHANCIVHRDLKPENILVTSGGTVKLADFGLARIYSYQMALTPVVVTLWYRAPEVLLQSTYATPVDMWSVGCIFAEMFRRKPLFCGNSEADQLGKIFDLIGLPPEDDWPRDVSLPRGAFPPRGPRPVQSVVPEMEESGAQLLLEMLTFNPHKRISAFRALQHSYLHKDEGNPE
T1 sequence (P30281 whole entry partner): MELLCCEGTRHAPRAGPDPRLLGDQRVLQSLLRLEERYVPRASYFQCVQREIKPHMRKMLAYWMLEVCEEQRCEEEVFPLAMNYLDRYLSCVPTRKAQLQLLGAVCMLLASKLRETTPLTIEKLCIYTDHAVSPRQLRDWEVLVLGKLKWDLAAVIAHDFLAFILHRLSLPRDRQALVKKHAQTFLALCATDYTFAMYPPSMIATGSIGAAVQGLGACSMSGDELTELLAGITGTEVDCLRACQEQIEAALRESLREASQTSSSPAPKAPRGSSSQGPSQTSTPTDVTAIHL

SMILES	IC50 (CDK4/cyclin D3)	IC50 (CDK2/cyclin A2)	neuronal death [1]
C[C@@H](O)c1cc2cnc(Nc3ccc(N4CCCNCC4=O)cn3)nc2c(N2CCCCCC2)n1 [Compound 307]	< 10 nM	10 to 100 nM	
C[C@@H](O)c1cc2cnc(Nc3ccc(C(=O)N4CCN(CCO)CC4)cn3)nc2c(N2CCCCC2)n1 [Compound 308]	< 10 nM	≥ 100 nM	
C[C@@H](O)c1cc2cnc(Nc3ccc(C(=O)N4CCN(C)CC4)cn3)nc2c(N2CCCCC2)n1 [Compound 309]	< 10 nM	≥ 100 nM	
C[C@@H](O)c1cc2cnc(Nc3ccc(C(=O)N4CCOCC4)cn3)nc2c(N2CCCCC2)n1 [Compound 310]	< 10 nM	≥ 100 nM	
C[C@@H](O)c1cc2cnc(Nc3ccc(C(=O)N4CCC(O)CC4)cn3)nc2c(N2CCCCC2)n1 [Compound 311]	< 10 nM	≥ 100 nM	
C[C@@H](O)c1cc2cnc(Nc3ccc(C(=O)N4CCS(=O)(=O)CC4)cn3)nc2c(N2CCCCC2)n1 [Compound 314]	< 10 nM	≥ 100 nM	
C[C@@H](O)c1cc2cnc(Nc3ccc(C(=O)N4CCC(N(C)C)CC4)cn3)nc2c(N2CCCCC2)n1 [Compound 315]	< 10 nM	≥ 100 nM	
CCN1CCN(C(=O)c2ccc(Nc3ncc4cc([C@@H](C)O)nc(N5CCCCC5)c4n3)nc2)CC1 [Compound 317]	< 10 nM	≥ 100 nM	
C[C@@H](O)c1cc2cnc(Nc3ccc(C(=O)N4CCN(C)CC4)cn3)nc2c(N2CCCC2)n1 [Compound 318]	< 10 nM	≥ 100 nM	
C[C@@H](O)c1cc2cnc(Nc3ccc(C(=O)N4CCN(C)CC4)cn3)nc2c(N2CCCCCC2)n1 [Compound 319]	< 10 nM	10 to 100 nM	
C[C@@H](O)c1cc2cnc(Nc3ccc(CN4CCN(C)CC4)cn3)nc2c(N2CCOCC2(C)C)n1 [Compound 322]	< 10 nM	≥ 100 nM	
C[C@@H](O)c1cc2cnc(Nc3ccc(CN4CCC5(CC4)COC5)cn3)nc2c(N2CCCCC2)n1 [Compound 325]	< 10 nM	≥ 100 nM	
Cc1nc(Nc2ncc3cc([C@@H](C)O)nc(N4CCCCC4)c3n2)ccc1N1CC2(C1)CN(C1COC1)C2 [Compound 327]	< 10 nM	≥ 100 nM	
CC(O)c1cc2cnc(Nc3ccc(N4CCCNCC4=O)cn3)nc2c(N2C3CCCC2CC3)n1 (stereo not drawn) [Compound 329]	< 10 nM	10 to 100 nM	
C[C@@H](O)c1cc2cnc(Nc3ccc4c(n3)CCN(C(=O)Cc3cccnc3)C4)nc2c(N2CCCCC2)n1 [Compound 330]	10 to 100 nM	≥ 100 nM	
C[C@@H](O)c1cc2cnc(Nc3ccc4c(n3)CCN(C(=O)Cn3cccn3)C4)nc2c(N2CCCCC2)n1 [Compound 331]	10 to 100 nM	≥ 100 nM	
C[C@@H](O)c1cc2cnc(Nc3ccc4c(n3)CCN(C(=O)Cn3cncn3)C4)nc2c(N2CCCCC2)n1 [Compound 332]	10 to 100 nM	≥ 100 nM	
Cc1nc(Nc2ncc3cc([C@@H](C)O)nc(N4CCCCC4)c3n2)ccc1N1CCN(C2CN(C)C2)CC1 [Compound 334]	< 10 nM	≥ 100 nM	
C[C@@H](O)c1cc2cnc(Nc3ccc4c(n3)CCN(C(=O)Cc3ccccn3)C4)nc2c(N2CCCCC2)n1 [Compound 335]	10 to 100 nM	≥ 100 nM	
C[C@@H](O)c1cc2cnc(Nc3ccc4c(n3)CCN(C(=O)Cn3ccnn3)C4)nc2c(N2CCCCC2)n1 [Compound 336]	10 to 100 nM	≥ 100 nM	
C[C@@H](O)c1cc2cnc(Nc3ccc4c(n3)CCN(C(=O)Cn3nccn3)C4)nc2c(N2CCCCC2)n1 [Compound 337]	10 to 100 nM	≥ 100 nM	
CN1CC[C@H](c2c(O)cc(O)c3c(=O)cc(-c4ccccc4Cl)oc23)[C@H](O)C1 [flavopiridol]			reduced

More lines, main results first:

IC50 (CDK4/cyclin D3)	IC50 (CDK2/cyclin A2)	SMILES	neuronal death [1]
< 10 nM	≥ 100 nM	C[C@@H](O)c1cc2cnc(Nc3ccc(C(=O)N4CC[C@@H](N(C)C)C4)cn3)nc2c(N2CCCCC2)n1 [Compound 312]	
< 10 nM	≥ 100 nM	C[C@@H](O)c1cc2cnc(Nc3ccc(C(=O)N4CC[C@H](N(C)C)C4)cn3)nc2c(N2CCCCC2)n1 [Compound 313]	
< 10 nM	≥ 100 nM	C[C@@H](O)c1cc2cnc(Nc3ccc(C(=O)N(C)CCN(C)C)cn3)nc2c(N2CCCCC2)n1 [Compound 316]	
< 10 nM	≥ 100 nM	C[C@@H](O)c1cc2cnc(Nc3ccc(C(=O)N4CCN(C)CC4)cn3)nc2c(N2CCC(F)CC2)n1 [Compound 320]	
< 10 nM	≥ 100 nM	CC(O)c1cc2cnc(Nc3ccc(CN4CCN(C)CC4)cn3)nc2c(N2CC3CCC(C2)O3)n1 (stereo not drawn) [Compound 321]	
< 10 nM	≥ 100 nM	O=C1CNCCCN1c1ccc(Nc2ncc3cc(C4COC4)nc(N4CCCCC4)c3n2)nc1 [Compound 323]	
< 10 nM	≥ 100 nM	C[C@@H](O)c1cc2cnc(Nc3ccc(N4CC5(C4)CN(C4COC4)C5)nn3)nc2c(N2CCCCC2)n1 [Compound 324]	
< 10 nM	≥ 100 nM	C[C@@H](O)c1cc2cnc(Nc3ccc(CN4CCC(C#N)CC4)cn3)nc2c(N2CCCCC2)n1 [Compound 326]	
< 10 nM	≥ 100 nM	Cc1nc(Nc2ncc3cc([C@@H](C)O)nc(N4CCCCC4)c3n2)ccc1N1CCN(C2CN(CCO)C2)CC1 [Compound 328]	
< 10 nM	≥ 100 nM	C[C@@H](O)c1cc2cnc(Nc3ccc4c(n3)CCN(C(=O)Cn3cnnc3)C4)nc2c(N2CCCCC2)n1 [Compound 333]	

— patent publication US11084814B2, “Pyrido[3, 4-d]pyrimidine derivative and pharmaceutically acceptable salt thereof” (Teijin Pharma Limited, priority 2016, dated 2021)
